According to patent US20240208986A1, “PHENYL AZEPINES AS RIPK1 INHIBITORS AND METHODS OF USE THEREOF” (Merck Sharp & Dohme LLC, priority 2021, published 2024):

Biological target: RIPK1 (recombinant GST-RIPK1 kinase domain, residues 1-327) (Homo sapiens (Human), UniProt Q13546)
Experiment: RIPK1-ADP-Glo Enzymatic Assay
Format: biochemical
Conditions: 25 nM GST-RIPK1, 300 μM ATP, 3 μM dephosphorylated-MBP; 30 minutes pre-incubation, 150 minutes reaction; ten-point titration
Protocol: The enzymatic activity of RIPK1 is measured using an assay derived from ADP-Glo kit (™Promega), which provides a luminescent-based ADP detection system. Specifically, the ADP generated by RIPK1 kinase is proportionally detected as luminescent signals in a homogenous fashion. In this context, the assessment of the inhibitory effect of small molecules (EC50) is measured by the effectiveness of the compounds to inhibit the ATP to ADP conversion by RIPK1.
In this assay, the potency (EC50) of each compound was determined from a ten-point (1:3 serial dilution; top compound concentration of 100000 nM) titration curve using the following outlined procedure. To each well of a white ProxiPlus 384 well-plate, 30 nL of compound (1% DMSO in final assay volume of 3 μL) was dispensed, followed by the addition of 2 μL of 1× assay buffer (25 mM Hepes 7.3, 20 mM MgCl2, 50 mM NaCl, 1 mM DTT, 0.005% Tween20, and 0.02% BSA) containing 37.5 nM of GST-RIPK1 (recombinant GST-RIPK1 kinase domain (residues 1-327) enzyme produced from baculovirus-transfected Sf21 cells: MW=62 kDa). Plates were placed in an ambient temperature humidified chamber for a 30 minutes pre-incubation with compound. Subsequently, each reaction was initiated by the addition of 1 μL 1× assay buffer containing 900 μM ATP and 3 μM dephosphorylated-MBP substrate. The final reaction in each well of 3 μL consists of 25 nM of GST-RIPK1, 300 μM ATP, and 3 μM dephosphorylated-MBP. Kinase reactions were allowed to proceed for 150 minutes prior to adding ADP-Glo reagents per Promega's outlined kit protocol. Dose-response curves were generated by plotting percent effect (% product conversion; Y-axis) vs. Log10 compound concentrations (X-axis). EC50 values were calculated using a non-linear regression, four-parameters sigmoidal dose-response model.

RIPK1 (recombinant GST-RIPK1 kinase domain, residues 1-327), sequence (Q13546 1-327): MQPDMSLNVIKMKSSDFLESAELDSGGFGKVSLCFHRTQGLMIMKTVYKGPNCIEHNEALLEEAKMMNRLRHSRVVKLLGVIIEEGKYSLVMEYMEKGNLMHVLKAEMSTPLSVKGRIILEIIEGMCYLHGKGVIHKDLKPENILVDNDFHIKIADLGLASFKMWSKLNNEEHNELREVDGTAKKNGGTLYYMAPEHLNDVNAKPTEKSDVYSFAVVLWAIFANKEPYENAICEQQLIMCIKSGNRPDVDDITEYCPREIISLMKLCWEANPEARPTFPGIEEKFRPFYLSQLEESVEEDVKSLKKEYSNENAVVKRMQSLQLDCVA

In the case of `CC1(C(=O)N2C[C@@H]3C[C@H]2c2ccccc2O3)CC1(F)F` (mixture of isomers) [Compound 1-14, [(R and S)-2,2-difluoro-1-methylcyclopropyl]-[(2S,5S)-2,3-dihydro-2,5-methano-1,4-benzoxazepin-4(5H)-yl]methanone], the IC50 is reported as 313 nM.

For `CC1(C(=O)N2C[C@@H]3C[C@H]2c2ccccc2O3)CC1(Cl)Cl` (mixture of isomers) [Compound 1-20, [(R and S)-2,2-dichloro-1-methylcyclopropyl]-[(2S,5S)-2,3-dihydro-2,5-methano-1,4-benzoxazepin-4(5H)-yl]methanone], the IC50 was 62 nM.

`CC1(C)CCC1C(=O)N1C[C@@H]2C[C@H]1c1ccccc1O2` (mixture of isomers) [Compound 1-27, [(2S,5S)-2,3-dihydro-2,5-methano-1,4-benzoxazepin-4(5H)-yl]-[(R and S)-2,2-dimethylcyclobutyl] methanone] was tested, and the IC50 was 921 nM.

Molecule `C[C@H]1CC[C@@](C)(C(=O)N2C[C@@H]3C[C@H]2c2ccccc2O3)C1(C)C` (racemic) [Compound 1-32, [(2S,5S)-2,3-dihydro-2,5-methano-1,4-benzoxazepin-4(5H)-yl][(1R,3S and 1S,3R)-1,2,2,3-tetramethylcyclopentyl] methanone] has an IC50 of 391 nM.

Molecule `O=C(C1CCCCC12CC2)N1C[C@@H]2C[C@H]1c1ccccc1O2` (mixture of isomers) [Compound 1-35, [(2S,5S)-2,3-dihydro-2,5-methano-1,4-benzoxazepin-4(5H)-yl]-[(R and S)-spiro[2.5]octan-4-yl]methanone] has an IC50 of 220 nM.

Work on `CC1(C(=O)N2C[C@@H]3C[C@H]2c2ccccc2O3)CCOC1` (mixture of isomers) [Compound 1-50, [(2S,5S)-2,3-dihydro-2,5-methano-1,4-benzoxazepin-4(5H)-yl]-[(R and S)-3-methyloxolan-3-yl]methanone] yielded an IC50 of 393 nM.

`CC(C)(C)C(=O)N1C2CCC1c1ccccc1OC2` (single isomer, unassigned) [Compound 3-1, 2,2-dimethyl-1-((3S,6R or 3R,6S)-3,4,5,6-tetrahydro-2H-3,6-epiminobenzo[b]oxocin-11-yl)propan-1-one] gave an IC50 of 281 nM.

In the case of `O=C(N1C[C@H]2Cc3ccccc3[C@@H]1C2)C12CCC(C(F)(F)F)(CC1)C2` (single isomer, unassigned) [Compound 3-4], the IC50 is reported as 267 nM.

For `C[C@@]12C[C@@H](c3ccccc3O1)N(C(=O)C13CCC(CC1)C3)C2` (single isomer, unassigned) [Compound 3-7], the IC50 was 6580 nM.

`C[C@@]12C[C@@H](c3ccccc3O1)N(C(=O)C13CCC(F)(CC1)C3)C2` (single isomer, unassigned) [Compound 3-8] showed an IC50 of 3980 nM.

Molecule `C[C@@]12C[C@@H](c3ccccc3O1)N(C(=O)C13CCC(C(F)(F)F)(CC1)C3)C2` (single isomer, unassigned) [Compound 3-9] has an IC50 of 2410 nM.

`O=C(NCc1ccc(Cl)cc1)C(=O)N1CC2C[C@H]1c1ccccc1O2` (stereo in doubt) [Compound 1-56, N-[(4-chlorophenyl)methyl]-2-[(2R,5S)-2,3-dihydro-2,5-methano-1,4-benzoxazepin-4(5H)-yl]-2-oxoacetamide] was tested, and the IC50 was 863 nM.

With `CC(C)(C)C(=O)N1C[C@@H]2C[C@H]1c1ccccc1O2` [Compound 1-1, 1-((2S,5S)-2,3-dihydro-2,5-methanobenzo[f][1,4]oxaze-pin-4(5H)-yl)-2,2-dimethylpropan-1-one] the IC50 was 48 nM.

In the case of `CC(C)(C(=O)N1C[C@@H]2C[C@H]1c1ccccc1O2)C(F)F` [Compound 1-2, 1-((2S,5S)-2,3-dihydro-2,5-methanobenzo[f][1,4]oxaze-pin-4(5H)-yl)-3,3-difluoro-2,2-dimethylpropan-1-one], the IC50 is reported as 61 nM.

`CC1(C(=O)N2C[C@@H]3C[C@H]2c2ccccc2O3)CCC1` [Compound 1-3, ((2S,5S)-2,3-dihydro-2,5-methanobenzo[f][1,4]oxaze-pin-4(5H)-yl)(1-methylcyclobutyl)methanone] showed an IC50 of 97 nM.

`O=C(N1C[C@@H]2C[C@H]1c1ccccc1O2)C12CCC(CC1)C2` [Compound 1-4, bicyclo[2.2.1]heptan-1-yl((2S,5S)-2,3-dihydro-2,5-methanobenzo[f][1,4]oxaze-pin-4(5H)-yl)methanone] showed an IC50 of 33 nM.

`CC1(C(=O)N2C[C@@H]3C[C@H]2c2ccccc2O3)CCCCC1` [Compound 1-5, ((2S,5S)-2,3-dihydro-2,5-methanobenzo[f][1,4]oxaze-pin-4(5H)-yl)(1-methylcyclohexyl)methanone] gave an IC50 of 42 nM.

`CC1(C(=O)N2C[C@@H]3C[C@H]2c2ccccc2O3)CCCC1` [Compound 1-6, ((2S,5S)-2,3-dihydro-2,5-methanobenzo[f][1,4]oxaze-pin-4(5H)-yl)(1-methylcyclopentyl) methanone] gave an IC50 of 43 nM.

Molecule `CC(C)(COC(F)(F)F)C(=O)N1C[C@@H]2C[C@H]1c1ccccc1O2` [Compound 1-7, 1-((2S,5S)-2,3-dihydro-2,5-methanobenzo[f][1,4]oxaze-pin-4(5H)-yl)-2,2-dimethyl-3-(trifluoromethoxy)propan-1-one] has an IC50 of 217 nM.

`O=C(C1CCCCC1)N1C[C@@H]2C[C@H]1c1ccccc1O2` [Compound 1-8, cyclohexyl((2S,5S)-2,3-dihydro-2,5-methanobenzo[f][1,4]oxaze-pin-4(5H)-yl)methanone] gave an IC50 of 641 nM.

`O=C(N1C[C@@H]2C[C@H]1c1ccccc1O2)C1(F)CCCCC1` [Compound 1-9, ((2S,5S)-2,3-dihydro-2,5-methanobenzo[f][1,4]oxaze-pin-4(5H)-yl)(1-fluorocyclohexyl)methanone] showed an IC50 of 381 nM.

`O=C(N1C[C@@H]2C[C@H]1c1ccccc1O2)C12CCCC(C1)C2` [Compound 1-10, bicyclo[3.1.1]heptan-1-yl((2S,5S)-2,3-dihydro-2,5-methanobenzo[f][1,4]oxaze-pin-4(5H)-yl)methanone] was tested, and the IC50 was 138 nM.

`CC(C)(C(=O)N1C[C@@H]2C[C@H]1c1ccccc1O2)C1CCC1` [Compound 1-11, 2-cyclobutyl-1-[(2S,5S)-2,3-dihydro-2,5-methano-1,4-benzoxazepin-4(5H)-yl]-2-methylpropan-1-one] showed an IC50 of 244 nM.

`CC(F)(F)C1(C(=O)N2C[C@@H]3C[C@H]2c2ccccc2O3)CCC1` [Compound 1-12, [1-(1,1-difluoroethyl)cyclobutyl] [(2S,5S)-2,3-dihydro-2,5-methano-1,4-benzoxazepin-4(5H)-yl]methanone] showed an IC50 of 86 nM.

`O=C(N1C[C@@H]2C[C@H]1c1ccccc1O2)C1(C(F)F)CCCC1` [Compound 1-13, [1-(difluoromethyl)cyclopentyl] [(2S,5S)-2,3-dihydro-2,5-methano-1,4-benzoxazepin-4(5H)-yl]methanone] gave an IC50 of 104 nM.

Work on `CC1(C)C(C(=O)N2C[C@@H]3C[C@H]2c2ccccc2O3)C1(C)C` [Compound 1-15, [(2S,5S)-2,3-dihydro-2,5-methano-1,4-benzoxazepin-4(5H)-yl](2,2,3,3-tetramethylcyclopropyl) methanone] yielded an IC50 of 981 nM.

For `O=C(N1C[C@@H]2C[C@H]1c1ccccc1O2)C1(C(F)(F)F)CCC1` [Compound 1-16, [(2S,5S)-2,3-dihydro-2,5-methano-1,4-benzoxazepin-4(5H)-yl][1-(trifluoromethyl)cyclobutyl] methanone], the IC50 was 96 nM.

Molecule `CC(F)(F)C(C)(C)C(=O)N1C[C@@H]2C[C@H]1c1ccccc1O2` [Compound 1-17, 1-[(2S,5S)-2,3-dihydro-2,5-methano-1,4-benzoxazepin-4(5H)-yl]-3,3-difluoro-2,2-dimethylbutan-1-one] has an IC50 of 47 nM.

`CC(C)(C(=O)N1C[C@@H]2C[C@H]1c1ccccc1O2)C(F)(F)F` [Compound 1-18, 1-[(2S,5S)-2,3-dihydro-2,5-methano-1,4-benzoxazepin-4(5H)-yl]-3,3,3-trifluoro-2,2-dimethylpropan-1-one] gave an IC50 of 73 nM.

`O=C(N1C[C@@H]2C[C@H]1c1ccccc1O2)C1(F)CCCC1` [Compound 1-19, [(2S,5S)-2,3-dihydro-2,5-methano-1,4-benzoxazepin-4(5H)-yl](1-fluorocyclopentyl)methanone] gave an IC50 of 499 nM.

In the case of `CC(C)(C)CC(=O)N1C[C@@H]2C[C@H]1c1ccccc1O2` [Compound 1-21, 1-[(2S,5S)-2,3-dihydro-2,5-methano-1,4-benzoxazepin-4(5H)-yl]-3,3-dimethylbutan-1-one], the IC50 is reported as 888 nM.

For `CCC(C)(C)C(=O)N1C[C@@H]2C[C@H]1c1ccccc1O2` [Compound 1-22, 1-[(2S,5S)-2,3-dihydro-2,5-methano-1,4-benzoxazepin-4(5H)-yl]-2,2-dimethylbutan-1-one], the IC50 was 21 nM.

Work on `O=C(N1C[C@@H]2C[C@H]1c1ccccc1O2)C12CC3CC(CC(C3)C1)C2` [Compound 1-23, [(2S,5S)-2,3-dihydro-2,5-methano-1,4-benzoxazepin-4(5H)-yl][(3R,5R,7R)-tricyclo[3.3.1.1~3,7~]decan-1-yl]methanone] yielded an IC50 of 234 nM.
